In patent US9115093B2, “Substituted bicyclic dihydropyrimidinones and their use as inhibitors of neutrophil elastase activity” (Boehringer Ingelheim International GmbH, priority 2013, dated 2015):
Values after ≈ are worked out from the molar mass of the structure shown.

How the values were obtained:
[1] = Drug transport across human CACO-2 cells; format: in vitro ADME
Text: Assay for Determination of Drug Transport Across Human CACO-2 Cells
The assay provides information on the potential of a compound to pass the cell membrane, on the extent of oral absorption as well as on whether the compound is actively transported by uptake and/or efflux transporters. For the measurement of permeability across polarized, confluent human cancer colon carcinoma cells 2 (Caco-2) cell monolayers grown on permeable filter supports are used as the in vitro absorption model. Apparent permeability coefficients (PE) of the compounds across the Caco-2 monolayers are measured (pH 7.2, 37° C.) in apical-to-basal (AB) (absorptive) and basal-to-apical (BA) (secretory) transport direction. AB permeability (PEAB) represents drug absorption from the intestine into the blood and BA permeability (PEBA) drug secretion from the blood back into the intestine via both passive permeability as well as active transport mechanisms mediated by efflux and uptake transporters that are expressed on the Caco-2 cells. The compounds are assigned to permeability/absorption classes by comparison of the AB permeabilities with the AB permeabilities of reference compounds with known in vitro permeability and oral absorption in the human. Identical or similar permeabilities in both transport directions indicate passive permeation, vectorial permeability points to additional active transport mechanisms. […] Active transport is concentration-dependently saturable.
Caco-2 cells (1−2*10^5 cells/cm^2 area) are seeded on filter inserts (Costar transwell polycarbonate or PET filters, […] pore size) and cultured (DMEM) for 10 to 25 days. Compounds are dissolved in appropriate solvent (like DMSO, 1-20 mM stock solutions). Stock solutions are diluted with HTP-4 buffer (128.13 mM NaCl, 5.36 mM KCl, 1 mM MgSO4, 1.8 mM CaCl2, 4.17 mM NaHCO3, 1.19 mM Na2HPO4×7H2O, 0.41 mM NaH2PO4×H2O, 15 mM HEPES, 20 mM glucose, pH 7.2) to prepare the transport solutions (typically […] compound, final DMSO <=0.5%). The transport solution (TL) is applied to the apical or basolateral donor side for measuring A-B or B-A permeability (3 filter replicates), respectively. The receiver side contains HTP-4 buffer supplemented with 2% BSA. Samples are collected at the start and end of experiment from the donor and at various time intervals for up to 2 hours also from the receiver side for concentration measurement by LC-MS/MS or scintillation counting. Sampled receiver volumes are is replaced with fresh receiver solution.
The apparent permeability coefficients (PEAB and PEBA) and efflux ratios (PEBA/PEAB) of selected compounds in the Caco-2 drug transport assay described above are listed in Table 17.

neutrophil elastase [2] = target: T1, neutrophil elastase (Homo sapiens, UniProt P08246); assay: Human Neutrophil Elastase Assay; format: biochemical; design: purchased Calbiochem 324681; details: substrate MeOSuc-Ala-Ala-Pro-Val-AMC, pH 7.5, room temperature
T1 sequence (P08246 30-247 limits assumed): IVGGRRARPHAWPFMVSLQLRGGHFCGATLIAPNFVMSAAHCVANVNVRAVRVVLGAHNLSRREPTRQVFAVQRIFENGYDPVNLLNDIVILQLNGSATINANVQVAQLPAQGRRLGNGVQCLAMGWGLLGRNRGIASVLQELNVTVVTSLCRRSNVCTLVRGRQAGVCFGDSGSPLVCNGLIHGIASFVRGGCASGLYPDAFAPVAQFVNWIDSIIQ
Procedure, shortened: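 Readout: AMC fluorescence (ex 380, em 460 nm) after 60 min room-temperature reaction with 250 nM MeOSuc-AAPV-AMC, following 15 min compound–enzyme preincubation. Buffer: Tris/NaCl pH 7.5, 0.01% BSA.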

Aqueous solubility = format: physicochemical; details: McIlvaine buffer with 2.5% DMSO; McIlvaine buffer pH 6.8, 2.5% DMSO, 24 h shaking
Procedure: Assay for Determination of Aqueous Solubility
The aqueous solubility of a compound is determined by comparing the amount dissolved in aqueous buffer (containing 2.5% DMSO) to the amount dissolved in an acetonitrile/water (1/1) solution. Starting from a 10 mM DMSO stock solution, aliquots are diluted with acetonitrile/water (1/1) and Mcllvaine buffer pH 6.8, respectively. After 24 h of shaking, the solutions or suspensions are filtered and analyzed by LC-UV. The amount dissolved in buffer is compared to the amount dissolved in the acetonitrile/water (1/1) solution. Solubility is measured from 0.001 to 0.125 mg/ml at a DMSO concentration of 2.5%. If more than 90% of the compound is dissolved in buffer, the value is marked with “>”.

neutrophil elastase [3] = target: T1, neutrophil elastase; assay: Neutrophil elastase inhibitory activity in human plasma; format: biochemical; design: The stimulated blood is centrifuged to generate the neutrophil elastase enriched plasma; from tissue; host or cells: plasma from zymosan-stimulated citrated whole blood of healthy human donors; details: neutrophil elastase enriched human plasma (zymosan-stimulated blood), substrate MeOSuc-Ala-Ala-Pro-Val-AMC
Procedure: Assay for the Determination of Neutrophil Elastase Inhibitory Activity in Human Plasma
Citrated blood from human healthy donors is mixed with zymosan suspension and incubated at room temperature. This leads to the stimulation of neutrophils and the release of neutrophil elastase into the plasma. The stimulated blood is centrifuged to generate the neutrophil elastase enriched plasma.
Preparation of Zymosan Working Solution:
• single 45 ml blood sample is taken into a 50 ml tube containing citrate (3.13%, 5 mL) and the tube is gently inverted 4 times. • Immediately after blood sampling, zymosan working solution (5 mL) is added. • After the addition of zymosan working solution, the tubes are capped, mixed gently and incubated at 22° C. for 15 min on a shaker at 20 rpm. • Make 10 ml aliquots after the incubation time. • Centrifuge the 15 ml tubes at 800 g for […] at 4° C. in a Jouan centrifuge. • Harvest the plasma and make 1-5 ml aliquots. • Store the plasma at −80° C.
Various concentrations of the neutrophil elastase inhibitor are incubated with plasma. Subsequently, the enzyme activity is measured using the fluorogenic substrate MeOSuc-Ala-Ala-Pro-Val-AMC (Bachem Cat. No. 1-1270, substrate concentration: 250 μM, pH 7.5, 25 mM TRIS buffer, 250 mM NaCl) in analogous fashion as described for the human neutrophil assay. A dose response curve is generated to calculate the EC50 of the inhibitor. The analysis of the data is performed by the calculation of the percentage of fluorescence in the presence of the test compound compared to the fluorescence of the vehicle control after subtracting the background fluorescence: An inhibitor of the neutrophil elastase enzyme will give values between 100% control (no inhibition) and 0% control (complete inhibition). The human plasma shift of selected compounds can be calculated using the following equation: Human plasma shift=(EC50 in human plasma assay)/(IC50 in human neutrophil elastase assay) The EC50 values of selected compounds in the human plasma assay described above are listed in Table 14.

[4] = Metabolic stability with human hepatocytes; format: in vitro ADME; details: human hepatocyte suspension, 1 μM, scaled with well stirred model
Procedure: Assay for the Determination of Metabolic Stability with Human Hepatocytes
The metabolic degradation of the test compound is assayed in a human hepatocyte suspension. Human hepatocytes (typically cryopreserved) are incubated in an appropriate buffer system (e.g. Dulbecco's modified eagle medium plus 3.5 μg glucagon/500 mL, 2.5 mg insulin/500 mL and 3.75 mg/500 mL hydrocortison) containing 5% species serum. Following a (typically) […] preincubation in an incubator (37° C., 10% CO2), 5 μl of test compound solution (80 μM; from 2 mM stock solution in DMSO diluted 1:25 with medium) are added into 395 μl hepatocyte suspension (cell density in the range 0.25-5*10^6 cells/mL, typically 1*10^6 cells/mL; final concentration of test compound 1 μM, final DMSO concentration […]). The cells are incubated for six hours (incubator, orbital shaker) and samples (25 μl) are taken at 0, 0.5, 1, 2, 4 and 6 hours. Samples are transferred into acetonitrile and pelleted by centrifugation (5 min). The supernatant is transferred to a new 96-deepwell plate, evaporated under nitrogen and resuspended. The decline of parent compound is analyzed by LC-MS/MS.
The intrinsic clearance CL_[…] is calculated as follows: CL_[…]=Dose/AUC=(C0/CD)/(AUD+clast/k)*1′000/60 (C0: initial concentration in the incubation [μM], CD: cell density of vital cells [10^6 cells/mL], AUD: area under the data [μM*h], clast: concentration of last data point [μM], k: slope of the regression line for parent decline [h^−1])
The calculated in vitro hepatic intrinsic clearance can be scaled up to the intrinsic in vivo hepatic clearance and used to predict hepatic in vivo blood clearance (CL) by the use of a is liver model (well stirred model): CL_[…]_INVIVO [ml/min/kg]=(CL_[…] [μL/min/10^6 cells]* hepatocellularity[10^6 cells/g liver]*liver factor[g/kg bodyweight])/1′000 CL[ml/min/kg]=CL_[…]_INVIVO [ml/min/kg]*hepatic blood flow [ml/min/kg]/(CL_[…]_INVIVO [ml/min/kg]+hepatic blood flow [ml/min/kg]) Qh[%]=CL[ml/min/kg]/hepatic blood flow[ml/min/kg]) (Hepatocellularity, human: 120*10^6 cells/g liver; lver factor, human: 25.7 g/kg bodyweight; blood flow, human: 21 ml/(min*kg))
The predicted human hepatic in vivo blood clearance (CL) of selected compounds in the metabolic stability assay described above are listed in Table 16.

[5] = Metabolic stability with human liver microsomes; format: in vitro ADME; details: pooled human liver microsomes, 37° C., 1 mg/ml protein, NADPH
Procedure: Assay for the Determination of Metabolic Stability with Human Liver Microsomes
The metabolic degradation of the test compound is assayed at 37° C. with pooled human liver microsomes. The final incubation volume of […] per time point contains TRIS buffer pH 7.6 (0.1 M), magnesium chloride (5 mM), microsomal protein (1 mg/ml) and the test compound at a final concentration of […]. Following a short preincubation period at 37° C., the reactions are initiated by addition of beta-nicotinamide adenine dinucleotide phosphate, reduced form (NADPH, 1 mM) and terminated by transfering an aliquot into acetonitrile after different time points. Additionally, the NADPH-independent degradation is monitored in incubations without NADPH, terminated at the last time point. The rol remaining test compound after NADPH independent incubation is reflected by the parameter c(control) (metabolic stability). The quenched incubations are pelleted by centrifugation (10′000 g, 5 min) An aliquot of the supernatant is assayed by LC-MS/MS for the amount of parent compound.
The half-life (t1/2 INVITRO) is determined by the slope of the semilogarithmic plot of the concentration-time profile. The intrinsic clearance (CL_[…]) is calculated by considering the amount of protein in the incubation: CL_[…][μl/min/mg protein]=(ln 2/(half-life [min]*protein content [mg/ml]))*1′000.
The half-life (t1/2 INVITRO) values of selected compounds in the metabolic stability assay described above are listed in Table 15.

SMILES	Papp A→B at 10 nM ([1]; Caco-2 monolayers, apical-to-basal, pH 7.2, 37° C., read-out: PEAB)	Papp B→A at 10 nM ([1]; Caco-2 monolayers, basal-to-apical, pH 7.2, 37° C., read-out: PEBA)	efflux ratio at 10 nM ([1]; pH 7.2, Caco-2, PEBA/PEAB)	IC50 (neutrophil elastase [2])	solubility at 24 h (Aqueous solubility)	EC50 (neutrophil elastase [3])	CL (predicted human hepatic in vivo blood clearance) [4]	t1/2 INVITRO [5]
CN(C)CCNC(=O)N1C(=O)N(c2cccc(C(F)(F)F)c2)C2=C(C(=O)CCC2)C1c1ccc(C#N)cc1 (centres unmarked) [Example 39.8]	16.4 ×10⁻⁶ cm/s	80.7 ×10⁻⁶ cm/s	4.9	1.4 nM	98 µg/mL (≈ 186 µM)	6 nM	–	–
CN1C(=O)N(c2cccc(C(F)(F)F)c2)C2=C(C(=O)CCC2)[C@H]1c1ccc(C#N)cc1S(C)(=O)=O [Example 48, (S)-4-(3-Methyl-2,5-dioxo-1-(3-(trifluoromethyl)phenyl)-1,2,3,4,5,6,7,8-octahydroquinazolin-4-yl)-3-(methylsulfonyl)benzonitrile]	–	–	–	1 nM	–	1 nM	3 mL/min/kg	–
CS(=O)(=O)c1cc(C#N)ccc1C1C2=C(CCCC2=O)N(c2cccc(C(F)(F)F)c2)C(=O)N1CCCO (centres unmarked) [Example 58.2]	–	–	–	–	–	–	3 mL/min/kg	>2.17 h
CN1C(=O)N(c2ccnc(C(F)(F)F)c2)C2=C(C(=O)CCC2)C1c1ccc(C#N)cc1S(C)(=O)=O (centres unmarked) [Example 64, 4-(3-Methyl-2,5-dioxo-1-(2-(trifluoromethyl)pyridin-4-yl)-1,2,3,4,5,6,7,8-octahydroquinazolin-4-yl)-3-(methylsulfonyl)benzonitrile]	–	–	–	3.6 nM	–	1 nM	0 mL/min/kg	–
CS(=O)(=O)c1cc(C#N)ccc1[C@@H]1C2=C(CCCC2=O)N(c2cccc(C(F)(F)F)c2)C(=O)N1S(C)(=O)=O [Example 68, (S)-3-(Methylsulfonyl)-4-(3-(methylsulfonyl)-2,5-dioxo-1-(3-(trifluoromethyl)phenyl)-1,2,3,4,5,6,7,8-octahydroquinazolin-4-yl)benzonitrile]	–	–	–	< 1 nM	–	1 nM	0 mL/min/kg	–
CC(C)(O)CNC(=O)N1C(=O)N(c2cccc(C(F)(F)F)c2)C2=C(C(=O)CCC2)C1c1ccc(C#N)cc1 (centres unmarked) [Example 70.9]	–	–	–	–	–	–	0 mL/min/kg	>2.17 h
CS(=O)(=O)c1cc(C#N)ccc1[C@@H]1C2=C(CCCC2=O)N(c2cccc(C(F)(F)F)c2)C(=O)N1C(N)=O [Example 75, (S)-4-(4-Cyano-2-(methylsulfonyl)phenyl)-2,5-dioxo-1-(3-(trifluoromethyl)phenyl)-1,2,5,6,7,8-hexahydroquinazoline-3(4H)-carboxamide]	–	–	–	< 1 nM	–	< 1 nM	–	–
CS(=O)(=O)c1cc(C#N)ccc1[C@@H]1C2=C(CCCC2=O)N(c2cccc(C(F)(F)F)c2)C(=O)N1C(=O)NC1CCOCC1 [Example 75.16]	–	–	–	–	–	–	0 mL/min/kg	>2.17 h
